# Reference: patent US20140377340A1, “HLA-DR BINDING PEPTIDES AND THEIR USES” (priority 2007, published 2014)
# Key:
# [1] = biological target: T1, purified HLA DRB1*0401 (Homo sapiens, UniProt P01903+P01911, A100K/A169T/F76Y/I96L/K127E/L162R/M171V/N62H/P40V/Q125Y/R42H/S133A/S149N/S66Y/V115G/V209L/W38E); assay: HLA-DR radioligand binding inhibition assay, DRB1*0401; conditions: IC50 nM purified HLA DRB1 *0401, purified HLA DRB1*0401
# T1 construct: purified from EBV transformed homozygous cell lines or single MHC allele transfected 721.221, C1R, or fibroblast lines; made in house
# How it was run: (§1)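 The probe, 1-10 nM radiolabeled peptide, was incubated with 1 μM to 1 nM HLA-DR for 2 days in the presence of protease inhibitors.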
# [2] = biological target: T2, purified HLA DRB3*0101 (Homo sapiens, UniProt P01903+P79483); assay: HLA-DR radioligand binding inhibition assay, DRB3*0101; conditions: IC50 nM purified HLA DRB3 *0101, purified HLA DRB3*0101
# T2 construct: purified from EBV transformed homozygous cell lines or single MHC allele transfected 721.221, C1R, or fibroblast lines; made in house
# Procedure: (§2) Instead, wells of an opaque white 96-well Optiplate (Packard) are coated with 3 μg (100 μl@ 30 μg/ml) of HLA-specific antibody (Ab) that “capture” complexes of radiolabeled MHC and unlabeled peptide transferred from the molecular binding assay plate in 100 μl of 0.05% NP40/PBS. After a 3-hour incubation period, the supernatant is decanted and scintillation fluid (Microscint 20) added. Captured complexes are then measured on a microplate scintillation and luminescence counter (TopCount NXTTM; Packard).
# (§3) HLA-DR purification. Fifteen distinct HLA-DR molecules were used in quantitative assays to measure the binding of peptides to solubilized HLA-DR molecules. […] Briefly, columns of inactivated Sepharose CL4B and Protein A Sepharose were used as pre-columns. HLA-DR molecules were captured by passage of lysates over LB3.1 monoclonal antibody (anti-HLA-DRA) columns. Antibody columns were washed with 10 mM Tris-HCL, pH8.0 with 1% (v/v) NP-40, followed by PBS containing 0.4% (w/v) n-octylglucoside. […] The pH was reduced to 8.0 and the eluates were concentrated by centrifugation in Centriprep 30 concentrators at 2000 rpm (Amicon, Beverly, Mass.).
# (§4) Briefly, 1-10 nM of radiolabeled peptide was co-incubated for 2 days at either room temperature or 37° C. with 1 μM to 1 nM purified HLA-DR molecules in the presence of a cocktail of protease inhibitors. Assays were performed at various pH conditions, ranging from pH 4 to pH 7. […] After incubation, the percentage of HLA-DR-bound radioactivity is determined by capturing HLA-DR/peptide complexes on Optiplates (Packard Instruments, Meriden, Conn.) coated with the LB3.1 antibody and determining bound counts per minute using the TopCount microscintillation counter (Packard Instruments). […] Competitor peptides are tested in 2-4 complete, independent experiments, at concentrations ranging from […].
# [3] = biological target: T3, purified HLA DRB1*0802 (Homo sapiens, UniProt P01903+P01911, A100R/A103L/A169T/F76Y/H45Y/I96F/K41T/L162R/M171V/P40S/Q125H/Q178H/Q39Y/Q99D/R218S/R42G/S66Y/V115G/W38E); assay: HLA-DR radioligand binding inhibition assay, DRB1*0802; conditions: IC50 nM purified HLA DRB1 *0802, purified HLA DRB1*0802
# T3 construct: purified from EBV transformed homozygous cell lines or single MHC allele transfected 721.221, C1R, or fibroblast lines; made in house
# Procedure: as §2, §3, §4
# [4] = biological target: T4, purified HLA DRB1*1201 (Homo sapiens, UniProt P01903+P01911, A100R/A169T/D57E/D86V/F55L/H45Y/K41T/L162R/M171V/P40S/Q125H/Q178H/Q39Y/Q99D/R42G/S66L/T262R/V114A/V67L/W38E/Y59H/Y61H/Y89S); assay: HLA-DR radioligand binding inhibition assay, DRB1*1201
# T4 construct: purified from EBV transformed homozygous cell lines or single MHC allele transfected 721.221, C1R, or fibroblast lines; made in house
# Procedure: as §2, §3, §4
# [5] = biological target: T5, purified HLA DRB1*0301 (Homo sapiens, UniProt P01903+P01911, A100K/A102G/A103R/A169T/F55Y/I96L/K41T/L162R/M171V/P40S/Q125H/Q178H/Q39Y/R42S/S66N/T106N/T262R/W38E/Y61H); assay: HLA-DR radioligand binding inhibition assay, DRB1*0301; conditions: IC50 nM purified HLA DRB1 *0301, purified HLA DRB1*0301
# T5 construct: purified from EBV transformed homozygous cell lines or single MHC allele transfected 721.221, C1R, or fibroblast lines; made in house
# Procedure: as §2
# HLA-DR purification. Fifteen distinct HLA-DR molecules were used in quantitative assays to measure the binding of peptides to solubilized HLA-DR molecules. […] Briefly, columns of inactivated Sepharose CL4B and Protein A Sepharose were used as pre-columns. HLA-DR molecules were captured by passage of lysates over LB3.1 monoclonal antibody (anti-HLA-DRA) columns. Antibody columns were washed with 10 mM Tris-HCL, pH8.0 with 1% (v/v) NP-40, followed by PBS containing 0.4% (w/v) n-octylglucoside.
# Briefly, 1-10 nM of radiolabeled peptide was co-incubated for 2 days at either room temperature or 37° C. with 1 μM to 1 nM purified HLA-DR molecules in the presence of a cocktail of protease inhibitors. Assays were performed at various pH conditions, ranging from pH 4 to pH 7. […] After incubation, the percentage of HLA-DR-bound radioactivity is determined by capturing HLA-DR/peptide complexes on Optiplates (Packard Instruments, Meriden, Conn.) coated with the LB3.1 antibody and determining bound counts per minute using the TopCount microscintillation counter (Packard Instruments).
# [6] = biological target: T6, purified HLA DRB1*1501 (Homo sapiens, UniProt P01903+P01911); assay: HLA-DR radioligand binding inhibition assay, DRB1*1501
# T6 construct: purified from EBV transformed homozygous cell lines or single MHC allele transfected 721.221, C1R, or fibroblast lines; made in house
# How it was run: as §1
# [7] = biological target: T7, purified HLA DRB1*0101 (Homo sapiens, UniProt P01903+P01911, A100R/D57E/F55L/F60I/F76Y/I96L/L162R/M171V/P40L/Q125E/R42F/V115G/Y59C); assay: HLA-DR radioligand binding inhibition assay, DRB1*0101; conditions: IC50 nM purified HLA DRB1 *0101, purified HLA DRB1*0101
# T7 construct: purified from EBV transformed homozygous cell lines or single MHC allele transfected 721.221, C1R, or fibroblast lines; made in house
# How it was run: as §1
# [8] = biological target: T8, purified HLA DRB5*0101 (Homo sapiens, UniProt P01903+Q30154); assay: HLA-DR radioligand binding inhibition assay, DRB5*0101; conditions: IC50 nM purified HLA DRB5 *0101, purified HLA DRB5*0101
# T8 construct: purified from EBV transformed homozygous cell lines or single MHC allele transfected 721.221, C1R, or fibroblast lines; made in house
# How it was run: as §1
# [9] = test system: short term T cell lines from breast or ovarian cancer patients; assay: IFN-γ ELISpot analysis of short term T cell lines (peptide versus protein fragment; natural processing); type: cell-based, human; conditions: T cell lines respond to culture peptide and to protein fragment; FIGS. 5 and 6
# From the text: IFN-γ ELISpot analysis of short term T cell lines generated against HER-2/neu peptides, p53 (Panel A), p83 (Panel B), p88 (Panel C) and p885 (Panel D). […] Each bar is the mean (s.e.m.) of three replicates.
# FIG. 6 is identical to FIG. 5 except that the results were obtained using IGFBP-2 derived helper epitopes.
# [10] = test system: 15 different HLA-DR molecules; assay: HLA-DR binding assays, panel of 15 different HLA-DR molecules (breadth of binding); conditions: number of the 15 HLA-DR molecules bound (binders: 1000 nM or better)
Structure (SMILES),IC50 [1] [nM],IC50 [2] [nM],IC50 [3] [nM],IC50 [4] [nM],IC50 [5] [nM],IC50 [6] [nM],IC50 [7] [nM],IC50 [8] [nM],naturally processed and presented antigen [9],Total XRN [10]
CSCC[C@H](NC(=O)[C@H](C)NC(=O)[C@@H](N)CCCNC(=N)N)C(=O)N[C@@H](CC(C)C)C(=O)N[C@@H](CCCCN)C(=O)N[C@@H](C)C(=O)N[C@@H](CCC(=O)O)C(=O)N[C@@H](CCC(=O)O)C(=O)N[C@H](C(=O)N[C@@H](CS)C(=O)N[C@@H](C)C(=O)N1CCC[C@H]1C(=O)N[C@@H](CO)C(=O)N[C@H](C(=O)N[C@@H](CO)C(=O)O)C(C)C)[C@@H](C)O [Peptide 9019.0148],360,> 20000,> 20000,> 20000,> 20000,–,–,–,–,–
CC[C@H](C)[C@H](NC(=O)[C@H](CS)NC(=O)[C@H](Cc1c[nH]c2ccccc12)NC(=O)[C@@H](N)CCCNC(=N)N)C(=O)N1CCC[C@H]1C(=O)N[C@@H](Cc1c[nH]c2ccccc12)C(=O)N[C@@H](CCC(N)=O)C(=O)N[C@@H](CCCNC(=N)N)C(=O)N[C@@H](CC(C)C)C(=O)N[C@@H](CC(C)C)C(=O)N[C@@H](CC(C)C)C(=O)N[C@H](C(=O)N[C@@H](C)C(=O)N[C@@H](CO)C(=O)N[C@@H](CC(C)C)C(=O)O)[C@@H](C)O [Peptide 9019.0104],426,> 20000,263,1560,7860,61,1470,4010,–,–
CC(C)C[C@H](NC(=O)[C@H](CC(C)C)NC(=O)[C@H](CC(C)C)NC(=O)[C@H](CC(C)C)NC(=O)[C@H](CC(C)C)NC(=O)[C@H](CC(C)C)NC(=O)[C@@H]1CCCN1C(=O)[C@H](CC(C)C)NC(=O)[C@H](CC(C)C)NC(=O)[C@@H]1CCCN1C(=O)[C@H](CC(C)C)NC(=O)[C@@H](N)CC(C)C)C(=O)NCC(=O)N[C@@H](C)C(=O)N[C@@H](CO)C(=O)O [Peptide 9019.0176],–,–,–,–,–,–,–,–,naturally processed peptides,10
